Source: patent publication US8232283B2, “Raf inhibitors” (Forma Therapeutics, Inc., priority 2008, dated 2012)

Columns and labels:
[1] = target: T1, C-Raf (Homo sapiens, UniProt P04049); assay: Biochemical inhibition, standard selectivity panel (Proteros); set-up: dose or concentration left out as unconfirmed
T1 construct: purchased Proteros biostructures GmbH (selectivity panel service)
Protocol: (§1) For example, selected compound of the present invention were tested in a standard selectivity panel including c-Raf, p38, and 22 other kinases (Proteros biostructures GmbH, Martinsried/Munich, Germany), under conditions of non-disclosure, non-dissemination and non-use.
(§2) In brief, selected compounds of the present invention were tested […] in triplicates against c-Raf, p38 as well as against Ab1, Akt1, Aur A, c-Kit, c-Raf, Cdk1/CycB, Chk1, FGFR3, Flt3, Fyn, IGF1-R, INSR, Lyn, MAPK-ERK1, PAK-4, PKCalpha, Plk1, Ret, ROCK2, RSK 1, c-Src, TIE2, and VEGF-R2.

[2] = target: T2, p38 (Homo sapiens, UniProt Q16539); assay: as above; set-up: dose or concentration left out as unconfirmed
T2 construct: purchased Proteros biostructures GmbH (selectivity panel service)
T2 sequence (Q16539 whole entry): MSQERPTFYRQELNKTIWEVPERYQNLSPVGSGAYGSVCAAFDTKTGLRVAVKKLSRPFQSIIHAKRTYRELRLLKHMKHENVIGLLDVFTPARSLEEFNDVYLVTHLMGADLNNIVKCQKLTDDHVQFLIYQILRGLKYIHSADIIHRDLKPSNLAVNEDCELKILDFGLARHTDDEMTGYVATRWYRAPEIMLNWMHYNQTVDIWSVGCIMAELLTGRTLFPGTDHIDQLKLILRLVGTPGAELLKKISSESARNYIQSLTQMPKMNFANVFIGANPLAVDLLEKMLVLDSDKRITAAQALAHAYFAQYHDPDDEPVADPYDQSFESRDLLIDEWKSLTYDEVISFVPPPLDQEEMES
Protocol: as §1, §2

[3] = tested on: HT-29 [B-Raf V600E mutant]; assay: Anti-proliferative activity, SRB assay, 72 hours; assay type: cell-based; settings: Homo sapiens, read-out: CELLULAR IC50 [μM] HT-29 [B-Raf V600E mutant]
Protocol: We observed the surprising finding that compounds of the invention were useful in inhibiting proliferation of HT-29 tumor cells (see Table 3).
(§3) Cells were exposed to the test compounds at various concentrations appropriate to determine an IC50, for 72 hours, and cell proliferation was measured using the SRB assay according to Shekan et al (J Natl Cancer Inst (1990) 82, 1107-112) in order to estimate the IC50 values shown in Table 3.
(§4) Briefly, cells were plated in 96 well dishes 24 hours prior to compound addition at the densities specified in Table 11.1.
(§5) The assay was terminated with the addition of ice cold 10% TCA after growth medium has been removed and the plates were incubated over night at 4° C. The plates were then washed 5 times with water and 100 μl of a Sulforhodamine B solution ([…]) was added to each well. The plates were then incubated for 10 minutes at room temperature before removal of unbound dye by washing with 1% acetic acid. The bound dye was solubilized with 10 mM Trizma base and the absorbance read at OD520.
(§6) Inhibitory activity of the compounds was calculated as % inhibition of cell proliferation compared to cells treated with the solvent (DMSO).

[4] = tested on: A-431 [B-Raf wildtype]; assay: Anti-proliferative activity, SRB assay, 72 hours; assay type: cell-based; settings: Homo sapiens, read-out: CELLULAR IC50 [μM] A-431 [B-Raf wildtype]
Protocol: as §3, §4, §5, §6

T1 sequence (P04049 whole entry): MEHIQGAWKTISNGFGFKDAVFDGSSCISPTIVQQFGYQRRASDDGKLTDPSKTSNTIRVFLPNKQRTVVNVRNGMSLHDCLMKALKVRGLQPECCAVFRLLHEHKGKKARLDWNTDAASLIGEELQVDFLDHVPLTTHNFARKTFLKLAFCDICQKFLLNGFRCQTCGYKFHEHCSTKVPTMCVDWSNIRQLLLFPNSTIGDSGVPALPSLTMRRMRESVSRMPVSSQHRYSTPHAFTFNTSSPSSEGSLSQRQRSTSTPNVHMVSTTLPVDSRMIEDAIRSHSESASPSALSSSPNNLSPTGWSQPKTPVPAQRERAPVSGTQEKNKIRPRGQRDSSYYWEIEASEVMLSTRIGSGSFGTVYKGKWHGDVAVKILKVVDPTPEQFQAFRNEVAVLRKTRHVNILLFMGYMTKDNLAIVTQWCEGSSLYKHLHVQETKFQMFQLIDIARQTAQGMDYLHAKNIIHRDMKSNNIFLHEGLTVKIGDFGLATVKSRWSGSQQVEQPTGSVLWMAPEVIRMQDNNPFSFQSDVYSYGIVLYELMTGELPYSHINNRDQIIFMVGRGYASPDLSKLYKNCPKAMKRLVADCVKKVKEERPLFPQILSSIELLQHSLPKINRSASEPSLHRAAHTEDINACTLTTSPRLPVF

| inhibition [1] | inhibition [2] | IC50 [3] | IC50 [4] | Structure (SMILES) |
| --- | --- | --- | --- | --- |
| > 70% | > 70% | < 10 µM | > 10 µM | COc1ccc(NC(=O)Nc2ccc(Cl)c(-c3cc4cnc(NCCN(C)C)nc4n(OC)c3=O)c2)cc1Cl [Compound 4, 1-{4-Chloro-3-[2-(2-dimethylamino-ethylamino)-8-methoxy-7-oxo-7,8-dihydro-pyrido[2,3-d]pyrimidin-6-yl]-phenyl}-3-(3-chloro-4-methoxy-phenyl)-urea] |
| > 70% | > 70% | < 5 µM | < 10 µM | CCN(CC)c1cc(C(=O)Nc2ccc(Cl)c(-c3cc4cnc(NCCN(C)C)nc4n(OC)c3=O)c2)cc(Cl)n1 [Compound 8, 2-Chloro-N-(4-chloro-3-(2-(2-(dimethylamino)ethylamino)-8-methoxy-7-oxo-7,8-dihydropyrido[2,3-d]pyrimidin-6-yl)phenyl)-6-diethylamino-isonicotinamide] |
| > 70% | > 70% | < 5 µM | > 10 µM | COn1c(=O)c(-c2cc(NC(=O)c3ccc(Cl)c(Cl)c3)ccc2Cl)cc2cnc(NCCN(C)C)nc21 [Compound 10, 3,4-Dichloro-N-{4-chloro-3-[2-(2-dimethylamino-ethylamino)-8-methoxy-7-oxo-7,8-dihydro-pyrido[2,3-d]pyrimidin-6-yl]-phenyl}-benzamide] |
| > 70% | > 70% | < 5 µM | > 10 µM | COn1c(=O)c(-c2cc(NC(=O)Cc3ccc(Cl)c(C(F)(F)F)c3)ccc2Cl)cc2cnc(NCCN(C)C)nc21 [Compound 16, N-{4-Chloro-3-[2-(2-dimethylamino-ethylamino)-8-methoxy-7-oxo-7,8-dihydro-pyrido[2,3-d]pyrimidin-6-yl]-phenyl)-2-(4-chloro-3-trifluoromethyl-phenyl)-acetamide] |
| > 70% | > 70% | < 5 µM | > 10 µM | COn1c(=O)c(-c2cc(NC(=O)c3ccc(F)c(C(F)(F)F)c3)ccc2Cl)cc2cnc(NCCN(C)C)nc21 [Compound 17, N-{4-Chloro-3-[2-(2-dimethylamino-ethylamino)-8-methoxy-7-oxo-7,8-dihydro-pyrido[2,3-d]pyrimidin-6-yl]-phenyl)-4-fluoro-3-trifluoromethyl-benzamide] |
| > 70% | > 70% | < 10 µM | > 10 µM | COn1c(=O)c(-c2cc(NC(=O)c3cccc(Cl)c3)ccc2Cl)cc2cnc(NCCN(C)C)nc21 [Compound 18, 3-Chloro-N-{4-chloro-3-[2-(2-dimethylamino-ethylamino)-8-methoxy-7-oxo-7,8-dihydro-pyrido[2,3-d]pyrimidin-6-yl]-phenyl}-benzamide] |
|  |  | < 5 µM | < 10 µM | COn1c(=O)c(-c2ccc(NC(=O)c3ccc(Cl)c(OC(F)(F)F)c3)cc2Cl)cc2cnc(NCCN(C)C)nc21 [Compound 52, 4-Chloro-N-{3-chloro-4-[2-(2-dimethylamino-ethylamino)-8-methoxy-7-oxo-7,8-dihydro-pyrido[2,3-d]pyrimidin-6-yl]-phenyl}-3-trifluoromethoxy-benzamide] |
|  |  | > 10 µM | > 10 µM | COn1c(=O)c(-c2ccc(NC(=O)c3ccc(CN4CCN(C)CC4)cc3)cc2Cl)cc2cnc(NCCN(C)C)nc21 [Compound 53, N-{3-Chloro-4-[2-(2-dimethylamino-ethylamino)-8-methoxy-7-oxo-7,8-dihydro-pyrido[2,3-d]pyrimidin-6-yl]-phenyl}-4-(4-methyl-piperazin-1-ylmethyl)-benzamide] |
|  |  | > 10 µM | > 10 µM | COn1c(=O)c(-c2ccc(NC(=O)c3ccnc(N4CCOCC4)c3)cc2Cl)cc2cnc(NCCN(C)C)nc21 [Compound 54, N-{3-Chloro-4-[2-(2-dimethylamino-ethylamino)-8-methoxy-7-oxo-7,8-dihydro-pyrido[2,3-d]pymidin-6-yl]-phenyl}-2-morpholin-4-yl-isonicotinamide] |
|  |  | < 5 µM | < 10 µM | COn1c(=O)c(-c2ccc(NC(=O)c3ccc(OCc4cccc(F)c4)c(Cl)c3)cc2Cl)cc2cnc(NCCN(C)C)nc21 [Compound 55, 3-Chloro-N-{3-chloro-4-[2-(2-dimethylamino-ethylamino)-8-methoxy-7-oxo-7,8-dihydro-pyrido[2,3-d]pyrimidin-6-yl]-phenyl}-4-(3-fluoro-benzyloxy)-benzamide] |
|  |  | < 5 µM | < 10 µM | COn1c(=O)c(-c2ccc(NC(=O)c3cc(C(C)(C)C)nn3-c3ccccc3)cc2Cl)cc2cnc(NCCN(C)C)nc21 [Compound 56, 5-tert-Butyl-2-phenyl-2H-pyrazole-3-carboxylic acid {3-chloro-4-[2-(2-dimethylamino-ethylamino)-8-methoxy-7-oxo-7,8-dihydro-pyrido[2,3-d]pyrimidin-6-yl]-phenyl}-amide] |
|  |  | < 10 µM | < 10 µM | COn1c(=O)c(-c2ccc(NC(=O)Cc3ccc(Cl)c(C(F)(F)F)c3)cc2Cl)cc2cnc(NCCN(C)C)nc21 [Compound 57, N-{3-Chloro-4-[2-(2-dimethylamino-ethylamino)-8-methoxy-7-oxo-7,8-dihydro-pyrido[2,3-d]pyrimidin-6-yl]-phenyl}-2-(4-chloro-3-trifluoromethyl-phenyl)-acetamide] |
|  |  | < 5 µM | < 10 µM | COn1c(=O)c(-c2cc(NC(=O)c3cc(Cl)nc(N4CCCC4)c3)ccc2Cl)cc2cnc(NCCN(C)C)nc21 [Compound 58, 2-Chloro-N-(4-chloro-3-(2-(2-(dimethylamino)ethylamino)-8-methoxy-7-oxo-7,8-dihydropyrido[2,3-d]pyrimidin-6-yl)phenyl)-6-pyrrolidin-1-yl-isonicotinamide] |
|  |  | < 5 µM | > 10 µM | COn1c(=O)c(-c2cc(NC(=O)c3cc(Cl)nc(N(C)C)c3)ccc2Cl)cc2cnc(NCCN(C)C)nc21 [Compound 59, 2-Chloro-N-(4-chloro-3-(2-(2-(dimethylamino)ethylamino)-8-methoxy-7-oxo-7,8-dihydropyrido[2,3-d]pyrimidin-6-yl)phenyl)-6-dimethylamino-isonicotinamide] |
|  |  | < 5 µM | < 10 µM | COn1c(=O)c(-c2cc(NC(=O)c3cc(Cl)nc(N4CCCCC4)c3)ccc2Cl)cc2cnc(NCCN(C)C)nc21 [Compound 60, 2-Chloro-N-(4-chloro-3-(2-(2-(dimethylamino)ethylamino)-8-methoxy-7-oxo-7,8-dihydropyrido[2,3-d]pyrimidin-6-yl)phenyl)-6-pyperidin-1-yl-isonicotinamide] |
|  |  | < 5 µM | > 10 µM | COn1c(=O)c(-c2cc(NC(=O)c3cc(Cl)nc(N4CCN(C)CC4)c3)ccc2Cl)cc2cnc(NCCN(C)C)nc21 [Compound 62, 2-Chloro-N-(4-chloro-3-(2-(2-(dimethylamino)ethylamino)-8-methoxy-7-oxo-7,8-dihydropyrido[2,3-d]pyrimidin-6-yl)phenyl)-6-(4-methyl-piperazin-1-yl)-isonicotinamide] |
|  |  | < 5 µM | > 10 µM | CCNc1cc(C(=O)Nc2ccc(Cl)c(-c3cc4cnc(NCCN(C)C)nc4n(OC)c3=O)c2)cc(Cl)n1 [Compound 63, 2-Chloro-N-(4-chloro-3-(2-(2-(dimethylamino)ethylamino)-8-methoxy-7-oxo-7,8-dihydropyrido[2,3-d]pyrimidin-6-yl)phenyl)-6-ethylamino-isonicotinamide] |
|  |  | < 10 µM | > 10 µM | COn1c(=O)c(-c2cc(NC(=O)c3cc(Cl)nc(NCCN(C)C)c3)ccc2Cl)cc2cnc(NCCN(C)C)nc21 [Compound 65, 2-Chloro-N-(4-chloro-3-(2-(2-(dimethylamino)ethylamino)-8-methoxy-7-oxo-7,8-dihydropyrido[2,3-d]pyrirnidin-6-yl)phenyl)-6-(2-dimethylaminoethylamino)-isonicotinamide] |
|  |  | < 10 µM | > 10 µM | COn1c(=O)c(-c2cc(NC(=O)c3cc(Cl)nc(NC4CCN(C)CC4)c3)ccc2Cl)cc2cnc(NCCN(C)C)nc21 [Compound 66] |
|  |  | < 5 µM | < 10 µM | COn1c(=O)c(-c2cc(NC(=O)c3cc(Cl)nc(NCc4ccc(N5CCN(C)CC5)cc4)c3)ccc2Cl)cc2cnc(NCCN(C)C)nc21 [Compound 67, 2-Chloro-N-(4-chloro-3-(2-(2-(dimethylamino)ethylamino)-8-methoxy-7-oxo-7,8-dihydropyrido[2,3-d]pyrimidin-6-yl)phenyl)-6-(4-(4-methylpiperazin-1-yl)-benzylamino)-isonicotinamide] |
